# Reference: ChEMBL document CHEMBL4387773, “Identification of potent, selective and orally bioavailable phenyl ((R)-3-phenylpyrrolidin-3-yl)sulfone analogues as RORγt inverse agonists” (Bioorg Med Chem Lett, 2019)
# What was measured:
# [1] = Stability in mouse liver microsomes assessed as parent compound remaining after 10 mins; format: ADME, Microsome; details: for Stability: microsomes, 10 min; for remaining at 10 min: liver microsomes, read-out: Stability
# [2] = biological target: T1, Oxysterols receptor LXR-beta (Homo sapiens, UniProt P55055); test: Transactivation of human GAL4-fused LXRbeta expressed in African green monkey CV1 cells; format: cell-based
# T1 sequence (P55055 whole entry): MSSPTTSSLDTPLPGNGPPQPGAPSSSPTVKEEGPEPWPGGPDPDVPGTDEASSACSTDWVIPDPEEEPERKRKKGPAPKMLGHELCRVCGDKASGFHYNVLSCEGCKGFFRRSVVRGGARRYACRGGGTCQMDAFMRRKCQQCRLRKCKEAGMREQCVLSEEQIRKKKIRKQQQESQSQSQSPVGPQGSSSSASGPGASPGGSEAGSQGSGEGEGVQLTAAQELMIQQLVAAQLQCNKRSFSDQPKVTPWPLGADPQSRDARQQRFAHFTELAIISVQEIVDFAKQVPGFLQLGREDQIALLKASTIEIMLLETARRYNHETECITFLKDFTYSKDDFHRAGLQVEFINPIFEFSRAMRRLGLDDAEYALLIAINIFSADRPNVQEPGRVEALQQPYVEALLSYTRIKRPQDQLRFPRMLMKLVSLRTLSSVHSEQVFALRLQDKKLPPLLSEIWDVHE
# [3] = biological target: T2, Nuclear receptor ROR-beta (Homo sapiens, UniProt Q92753); test: Inverse agonist activity at human Gal4-fused RORbeta LBD (200 to 559 residues) expressed in human Jurkat cells measured after 18 hrs by steady-glo luciferase reporter gene assay; format: cell-based
# T2 sequence (Q92753 whole entry): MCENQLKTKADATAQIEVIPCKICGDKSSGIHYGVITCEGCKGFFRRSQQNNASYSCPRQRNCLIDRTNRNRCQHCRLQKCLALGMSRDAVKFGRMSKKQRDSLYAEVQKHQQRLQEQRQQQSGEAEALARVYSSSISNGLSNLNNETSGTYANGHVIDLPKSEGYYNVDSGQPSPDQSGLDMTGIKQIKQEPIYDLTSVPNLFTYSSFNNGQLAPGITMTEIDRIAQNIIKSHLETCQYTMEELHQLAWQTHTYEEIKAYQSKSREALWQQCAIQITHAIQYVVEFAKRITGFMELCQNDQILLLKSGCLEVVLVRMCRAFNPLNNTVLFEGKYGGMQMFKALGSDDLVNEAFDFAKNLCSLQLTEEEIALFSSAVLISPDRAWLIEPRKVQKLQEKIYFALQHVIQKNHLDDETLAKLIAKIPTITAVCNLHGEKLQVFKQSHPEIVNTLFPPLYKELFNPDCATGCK
# [4] = biological target: T3, Nuclear receptor ROR-alpha (Homo sapiens, UniProt P35398); test: Inverse agonist activity at human Gal4-fused RORalpha LBD (272 to 556 residues) expressed in human Jurkat cells measured after 18 hrs by steady-glo luciferase reporter gene assay; format: cell-based
# T3 sequence (P35398 whole entry): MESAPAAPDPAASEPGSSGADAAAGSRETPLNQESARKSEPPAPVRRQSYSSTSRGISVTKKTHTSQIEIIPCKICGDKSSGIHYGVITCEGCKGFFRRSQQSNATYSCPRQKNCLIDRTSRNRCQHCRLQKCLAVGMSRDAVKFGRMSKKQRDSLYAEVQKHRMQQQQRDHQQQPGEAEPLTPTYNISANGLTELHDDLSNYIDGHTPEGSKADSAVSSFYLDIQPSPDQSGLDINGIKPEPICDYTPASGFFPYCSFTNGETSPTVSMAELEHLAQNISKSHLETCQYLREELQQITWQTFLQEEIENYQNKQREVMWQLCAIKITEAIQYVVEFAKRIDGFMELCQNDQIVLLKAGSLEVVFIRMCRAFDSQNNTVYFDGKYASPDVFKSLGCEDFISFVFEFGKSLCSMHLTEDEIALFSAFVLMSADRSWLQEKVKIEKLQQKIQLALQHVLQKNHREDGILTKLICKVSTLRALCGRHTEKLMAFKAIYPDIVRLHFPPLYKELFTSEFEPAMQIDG
# [5] = biological target: T4, Nuclear receptor subfamily 1 group I member 2 (Homo sapiens, UniProt O75469); test: (§1) Transactivation of PXR (unknown origin) expressed in human HepG2 cells assessed as maximum receptor activation response relative to control; format: cell-based; details: hepg2
# T4 sequence (O75469 whole entry): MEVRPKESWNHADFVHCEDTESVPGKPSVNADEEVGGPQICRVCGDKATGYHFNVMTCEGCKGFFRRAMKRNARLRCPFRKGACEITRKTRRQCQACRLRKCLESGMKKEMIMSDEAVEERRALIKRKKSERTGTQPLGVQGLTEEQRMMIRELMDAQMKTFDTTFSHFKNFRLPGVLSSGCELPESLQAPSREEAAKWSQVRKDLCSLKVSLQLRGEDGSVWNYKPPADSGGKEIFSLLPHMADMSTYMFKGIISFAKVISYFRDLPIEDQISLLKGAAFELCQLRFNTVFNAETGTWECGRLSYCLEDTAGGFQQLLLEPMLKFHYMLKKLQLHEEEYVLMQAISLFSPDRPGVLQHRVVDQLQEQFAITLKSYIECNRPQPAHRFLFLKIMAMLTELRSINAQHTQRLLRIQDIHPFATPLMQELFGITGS
# [6] = biological target: T5, Oxysterols receptor LXR-alpha (Homo sapiens, UniProt Q13133); test: Transactivation of human GAL4-fused LXRalpha expressed in African green monkey CV1 cells; format: cell-based
# T5 sequence (Q13133 whole entry): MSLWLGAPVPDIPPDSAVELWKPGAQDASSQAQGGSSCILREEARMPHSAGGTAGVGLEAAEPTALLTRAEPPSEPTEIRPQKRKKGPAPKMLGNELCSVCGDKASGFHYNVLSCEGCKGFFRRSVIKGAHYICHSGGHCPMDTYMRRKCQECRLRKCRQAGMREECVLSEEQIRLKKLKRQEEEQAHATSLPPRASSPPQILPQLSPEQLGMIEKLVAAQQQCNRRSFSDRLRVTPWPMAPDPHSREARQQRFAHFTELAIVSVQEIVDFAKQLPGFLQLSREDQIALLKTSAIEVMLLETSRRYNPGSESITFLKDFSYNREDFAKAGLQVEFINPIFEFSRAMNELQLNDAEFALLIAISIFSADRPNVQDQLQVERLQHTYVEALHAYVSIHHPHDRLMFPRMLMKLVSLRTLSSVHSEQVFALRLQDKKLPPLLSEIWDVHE
# [7] = biological target: T4, Nuclear receptor subfamily 1 group I member 2; test: Transactivation of PXR (unknown origin) expressed in human HepG2 cells; format: cell-based
# [8] = Stability in human liver microsomes assessed as parent compound remaining after 10 mins; format: ADME, Microsome; details: for remaining at 10 min: liver microsomes, read-out: Stability; for Stability: microsomes, 10 min
# PXR = biological target: T6, PXR (Homo sapiens, UniProt O75469); test: as §1; format: cell-based; details: human HepG2 cells that express PXR, read-out: %max
# T6 sequence (O75469 whole entry): T4 sequence (O75469 whole entry)
# [9] = biological target: T7, Nuclear receptor ROR-gamma (Homo sapiens, UniProt P51449); test: Inverse agonist activity at human Gal4-fused RORgammat LBD (267 to 516 residues) expressed in human Jurkat cells measured after 18 hrs by steady-glo luciferase reporter gene assay; format: cell-based
# T7 sequence (P51449 whole entry): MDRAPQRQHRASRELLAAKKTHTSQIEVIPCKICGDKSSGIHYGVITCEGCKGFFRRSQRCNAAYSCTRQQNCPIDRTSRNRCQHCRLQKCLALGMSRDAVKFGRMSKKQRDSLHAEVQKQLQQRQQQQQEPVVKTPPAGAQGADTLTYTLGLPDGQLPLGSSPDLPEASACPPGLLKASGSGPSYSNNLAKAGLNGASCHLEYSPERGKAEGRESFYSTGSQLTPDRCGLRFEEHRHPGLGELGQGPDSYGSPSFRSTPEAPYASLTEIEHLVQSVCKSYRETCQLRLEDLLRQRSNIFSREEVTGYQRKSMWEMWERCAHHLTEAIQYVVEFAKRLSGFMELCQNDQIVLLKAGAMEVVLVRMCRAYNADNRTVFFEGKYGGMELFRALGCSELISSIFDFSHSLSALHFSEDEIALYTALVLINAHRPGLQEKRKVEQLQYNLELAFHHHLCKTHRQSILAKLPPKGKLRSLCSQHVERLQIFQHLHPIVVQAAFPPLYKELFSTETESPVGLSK
Stability [1] [%],EC50 [2] [µM],EC50 ([3]; jurkat) [µM],EC50 ([4]; jurkat) [µM],%max [5] [%],EC50 [6] [µM],EC50 [7] [µM],remaining at 10 min [1] [%],remaining at 10 min [8] [%],EC50 [3] [µM],EC50 [4] [µM],Emax (PXR) [%],EC50 [9] [nM],Stability [8] [%],EC50 ([7]; hepg2) [µM],SMILES
96,> 7.5,> 40,> 40,37,> 7.5,7.2,–,–,–,–,–,–,–,–,O=C(C1CCS(=O)(=O)C1)N1CC[C@](c2ccc(C(F)(C(F)(F)F)C(F)(F)F)cc2)(S(=O)(=O)c2ccc(F)cc2)C1 (stereo in doubt; 33)
–,> 7.5,–,–,–,> 7.5,> 50,100,85,> 40,> 40,18,776,–,–,C[C@]1(C(=O)N2CC[C@](c3ccc(C(F)(C(F)(F)F)C(F)(F)F)cc3)(S(=O)(=O)c3ccc(F)cc3)C2)CC[C@@H](C(=O)O)CC1
82,> 7.5,> 40,> 40,3,> 7.5,> 50,–,–,–,–,–,–,93,–,O=C1NC(=O)C2(CCC(C(=O)N3CC[C@](c4ccc(C(F)(C(F)(F)F)C(F)(F)F)cc4)(S(=O)(=O)c4ccc(F)cc4)C3)CC2)N1 (stereo in doubt; 25)
–,> 7.5,–,–,28,> 7.5,> 14,81,84,> 40,> 40,–,–,–,–,O=C1NC(=O)C2(CCC(C(=O)N3CC[C@](c4ccc(C(F)(C(F)(F)F)C(F)(F)F)cc4)(S(=O)(=O)c4ccc(F)cc4)C3)CC2)N1 (stereo in doubt; 24)
–,> 7.5,–,–,9,> 7.5,> 50,99,100,> 40,> 40,–,–,–,–,O=C(O)C1CCC(O)(C(=O)N2CC[C@](c3ccc(C(F)(C(F)(F)F)C(F)(F)F)cc3)(S(=O)(=O)c3ccc(F)cc3)C2)CC1 (stereo in doubt; 12)
–,> 7.5,–,–,–,> 7.5,> 50,95,80,> 40,> 40,7,56,–,–,C[C@]1(C(=O)N2CC[C@](c3ccc(C(F)(C(F)(F)F)C(F)(F)F)cc3)(S(=O)(=O)c3ccc(F)cc3)C2)CC[C@H](C(=O)O)CC1
98,> 7.5,> 40,> 40,19,> 7.5,–,–,–,–,–,–,–,95,> 50,O=C(O)C1CCC(O)(C(=O)N2CC[C@](c3ccc(C(F)(C(F)(F)F)C(F)(F)F)cc3)(S(=O)(=O)c3ccc(F)cc3)C2)CC1 (stereo in doubt; 13)
–,> 7.5,–,–,29,> 7.5,1.8,69,88,> 40,> 40,–,–,–,–,CS(=O)(=O)C1CCC(C(=O)N2CC[C@](c3ccc(C(F)(C(F)(F)F)C(F)(F)F)cc3)(S(=O)(=O)c3ccc(F)cc3)C2)CC1 (stereo in doubt; 28)
